Data from BindingDB's records for doi:10.1021/acs.jmedchem.6b01194 (University of Illinois At Chicago, 2016).
pEC50: −log10 of the molar value.

Molecular target: 5-hydroxytryptamine receptor 2B (Homo sapiens, UniProt P41595)
Experiment: Agonist activity at human 5-HT2B receptor expressed in human Flp-In-293 cells assessed as induction of calcium flux incubated for 1 hr by Fluo-4 direct dye based FLIPR assay

5-hydroxytryptamine receptor 2B, sequence (P41595 whole entry): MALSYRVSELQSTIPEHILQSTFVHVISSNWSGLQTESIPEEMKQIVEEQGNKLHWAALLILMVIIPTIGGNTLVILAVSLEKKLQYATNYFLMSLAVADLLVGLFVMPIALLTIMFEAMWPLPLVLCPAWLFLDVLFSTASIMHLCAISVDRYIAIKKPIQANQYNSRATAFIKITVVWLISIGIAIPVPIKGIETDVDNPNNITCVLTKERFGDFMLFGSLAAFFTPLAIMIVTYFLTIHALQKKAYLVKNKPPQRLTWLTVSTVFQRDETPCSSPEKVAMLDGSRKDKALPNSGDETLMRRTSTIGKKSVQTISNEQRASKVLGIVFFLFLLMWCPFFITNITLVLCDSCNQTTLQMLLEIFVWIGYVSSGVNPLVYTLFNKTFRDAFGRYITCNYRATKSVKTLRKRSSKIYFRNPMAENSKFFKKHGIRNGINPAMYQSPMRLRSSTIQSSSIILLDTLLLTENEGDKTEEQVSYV

pEC50: 6.47
SMILES: NC[C@H]1C[C@@H]1c1c(OCC2CC2)ccc2occc12
